Values belong to the compound of their own block, whether it stands above or below them. Activity calls are given as the source filed them.
Assays:
[1] = HEK293 Cytotoxicity Assay Measured in Cell-Based System Using Plate Reader - 7071-01_Inhibitor_Dose_CherryPick_Activity_Set2.; assay type: functional
HeLa = test: viability loss in HeLa cells – cell-based, ATP luminescence, cherry-pick samples, cytotoxicity control, dose response (AID 687004); assay type: functional; details: Homo sapiens
HEK293 = test: viability loss in HEK293T cells – cell-based, ATP luminescence, cherry-pick samples, cytotoxicity control, dose response (AID 687005); assay type: functional; details: Homo sapiens;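 note: cells exposed to compound for 48 hours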
cells [2] = details: A549
[3] = viability loss in HepG2 hepatoma cells – cell-based, cherry-picks, set 5, cytotoxicity control, dose response (AID 1053118); assay type: functional
[4] = viability loss in HEK293 kidney cells – cell-based, cherry-picks, set 5, cytotoxicity control, dose response (AID 1053117); assay type: functional
[5] = blockers of FN fibrillogenesis by fibroblasts – AH1F cells, Alexa488-FN fluorescence, cherry-picks, dose response (AID 1035475); assay type: functional, cell-based
[6] = T. cruzi growth inhibition in host cells, dose response, cell-based, plate reader, dry powder, set 2 (AID 652275); assay type: functional
[7] = HEK293T viability loss – cell-based, ATP luminescence, dry powder, Set6, cytotoxicity control, dose response (AID 743142); assay type: functional; details: HEK293
[8] = viability loss in A549 lung cancer cells – cell-based, CellTiter-Glo luminescence, dry powder, set 3, cytotoxicity control, dose response (AID 743146); assay type: functional
[9] = target: Potassium channel subfamily K member 9 (Homo sapiens, UniProt Q9NPC2); test: KCNK9 flux blockade, concentration-response – cell-based, FluxOR thallium flux, selectivity assay for TASK1 inhibitor project, SAR follow-up (AID 652211); assay type: functional;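 note: potency is for inhibitors of the channel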
[10] = target: Potassium channel subfamily K member 3 (Rattus norvegicus, UniProt O54912); test: SAR analysis for the identification of selective inhibitors of the two-pore domain potassium channel TASK1(KCNK3):Automated Electrophysiology.; assay type: functional
cells [11] = assay type: functional, cell-based
[12] = Luminescence-based cell-based high throughput dose response assay to identify activators of the DAF-12 from the parasite S. stercoralis (ssDAF-12).; assay type: functional
[13] = target: T1, Nuclear receptor subfamily 0 group B member 1 (Homo sapiens, UniProt P51843); assay type: functional, cell-based;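 note: HEK293T cells transfected with SF-1 and DAX-1 plus StAR promoter luciferase reporter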
T1 sequence (P51843 whole entry): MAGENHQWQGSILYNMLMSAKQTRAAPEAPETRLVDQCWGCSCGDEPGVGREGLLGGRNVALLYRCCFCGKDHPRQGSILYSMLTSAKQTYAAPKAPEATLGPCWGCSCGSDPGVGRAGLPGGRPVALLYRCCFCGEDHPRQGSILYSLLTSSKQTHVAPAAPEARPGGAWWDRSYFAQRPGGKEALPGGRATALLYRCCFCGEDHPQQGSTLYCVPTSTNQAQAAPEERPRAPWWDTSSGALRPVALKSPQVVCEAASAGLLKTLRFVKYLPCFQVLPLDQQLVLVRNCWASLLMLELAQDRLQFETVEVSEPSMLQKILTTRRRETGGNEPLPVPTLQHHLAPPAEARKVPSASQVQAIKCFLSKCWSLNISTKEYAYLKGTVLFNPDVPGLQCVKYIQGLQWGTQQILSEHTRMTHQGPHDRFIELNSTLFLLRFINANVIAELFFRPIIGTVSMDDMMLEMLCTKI

[14] = target: T2, Scavenger receptor class B member 1 (Mus musculus, UniProt Q61009); test: mouse SR-BI DiI-HDL transfer blockers – ldlA[mSR-BI] CHO cells, fluorescence plate reader, dry powder, set 9, dose response (AID 623880); assay type: functional, cell-based
[15] = target: T2, Scavenger receptor class B member 1; test: blockers of DiI-HDL lipid transfer via SR-BI – cell-based, ldlA[mSR-BI] CHO, DiI fluorescence, dry powder, set 10, dose response (AID 624029); assay type: functional
[16] = Shn3 3'UTR reporter signal decrease – cell-based, Clone20 osteoblasts, firefly luciferase, cherry-pick, set 2, Schnurri-3 inhibitor project, dose response (AID 720490); assay type: functional;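 note: actives lower the luminescence signal as inhibitors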
[17] = non-specific 3'UTR reporter inhibition in Clone20-Shn3RL – cell-based, Renilla luciferase, cherry-picked, counter-screen for Shn3 inhibitor project, dose response (AID 624133); assay type: functional
[18] = loss of viability in HepG2 cells – cell-based, CellTiter-Glo, cherry-picked, cytotoxicity control for Shn3 inhibitor project, dose response (AID 624134); assay type: functional
cells [19] = assay type: functional, cell-based; details: HEK-CNG
Galanin receptor type 3 = target: T3, Galanin receptor type 3 (Homo sapiens, UniProt O60755); test: Fluorescence-based cell-based primary high throughput dose response assay to identify antagonists of the Galanin Receptor 3 (GalR3).; assay type: functional
T3 sequence (O60755 whole entry): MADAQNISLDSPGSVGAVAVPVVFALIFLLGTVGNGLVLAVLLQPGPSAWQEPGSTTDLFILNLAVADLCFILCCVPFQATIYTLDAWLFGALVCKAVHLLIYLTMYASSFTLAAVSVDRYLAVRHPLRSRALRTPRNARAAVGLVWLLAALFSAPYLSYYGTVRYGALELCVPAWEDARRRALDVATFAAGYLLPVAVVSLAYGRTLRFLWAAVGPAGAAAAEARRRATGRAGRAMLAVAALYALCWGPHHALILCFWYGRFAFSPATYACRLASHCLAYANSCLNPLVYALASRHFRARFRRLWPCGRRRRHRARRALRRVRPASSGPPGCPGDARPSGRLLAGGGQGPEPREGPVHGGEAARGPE

[20] = reduction of Shn3 3'UTR-driven luciferase in osteoblasts – cell-based, Clone20 osteoblasts, firefly luciferase, cherry-picked, dose response (AID 624132); assay type: functional;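 note: firefly luciferase luminescence from reporter carrying the Shn3 3'UTR in osteoblasts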
[21] = target: COUP transcription factor 2 (Homo sapiens, UniProt P24468); test: Luminescence-based cell-based high throughput dose response assay to identify inhibitors of COUP-TFII (NR2F2).; assay type: functional;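 note: HEK293 cells transiently cotransfected with COUP-TFII expression vector and reporter; luciferase reporter luminescence driven by COUP-TFII from the pX2-168 reporter plasmid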
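Throughout, for EC50: target is galanin receptor GalR3 read with a cAMP biosensor in HEK293 cells.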

T2 sequence (Q61009 whole entry): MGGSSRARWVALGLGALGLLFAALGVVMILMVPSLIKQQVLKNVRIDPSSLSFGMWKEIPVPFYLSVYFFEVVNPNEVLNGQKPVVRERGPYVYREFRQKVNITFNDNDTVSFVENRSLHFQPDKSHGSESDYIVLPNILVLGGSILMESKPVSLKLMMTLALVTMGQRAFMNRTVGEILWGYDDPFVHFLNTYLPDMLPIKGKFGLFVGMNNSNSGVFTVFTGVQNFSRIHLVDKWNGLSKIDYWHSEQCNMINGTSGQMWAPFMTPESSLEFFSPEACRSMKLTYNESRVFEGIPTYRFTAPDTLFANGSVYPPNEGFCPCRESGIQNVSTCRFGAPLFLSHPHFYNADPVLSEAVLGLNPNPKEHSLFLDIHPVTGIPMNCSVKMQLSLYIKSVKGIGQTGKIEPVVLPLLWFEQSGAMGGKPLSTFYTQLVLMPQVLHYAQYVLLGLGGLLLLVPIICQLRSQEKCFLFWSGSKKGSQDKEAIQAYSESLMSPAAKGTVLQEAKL
Sequence of Potassium channel subfamily K member 3 (O54912 whole entry, the tested form may be a part): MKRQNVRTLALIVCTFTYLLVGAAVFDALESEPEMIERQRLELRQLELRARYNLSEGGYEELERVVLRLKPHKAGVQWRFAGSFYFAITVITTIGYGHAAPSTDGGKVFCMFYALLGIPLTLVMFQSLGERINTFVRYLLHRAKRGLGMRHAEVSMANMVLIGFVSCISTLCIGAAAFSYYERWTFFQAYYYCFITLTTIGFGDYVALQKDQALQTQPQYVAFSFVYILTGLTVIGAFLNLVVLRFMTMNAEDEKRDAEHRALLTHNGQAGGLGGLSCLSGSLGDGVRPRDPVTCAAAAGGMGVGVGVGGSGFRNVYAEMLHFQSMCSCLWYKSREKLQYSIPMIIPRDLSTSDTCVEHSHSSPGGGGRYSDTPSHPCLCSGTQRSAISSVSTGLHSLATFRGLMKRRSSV
Sequence of Potassium channel subfamily K member 9 (Q9NPC2 whole entry, the tested form may be a part): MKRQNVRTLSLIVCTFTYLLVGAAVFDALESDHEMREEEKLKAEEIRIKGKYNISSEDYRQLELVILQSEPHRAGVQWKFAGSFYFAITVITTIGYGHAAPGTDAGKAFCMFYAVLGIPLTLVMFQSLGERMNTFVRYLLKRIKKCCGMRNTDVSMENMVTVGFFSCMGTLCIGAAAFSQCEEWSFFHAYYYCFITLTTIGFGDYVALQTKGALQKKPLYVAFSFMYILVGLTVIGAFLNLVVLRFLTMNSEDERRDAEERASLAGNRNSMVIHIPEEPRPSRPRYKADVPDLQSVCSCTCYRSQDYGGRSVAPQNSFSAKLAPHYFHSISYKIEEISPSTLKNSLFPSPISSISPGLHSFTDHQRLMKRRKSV
Sequence of COUP transcription factor 2 (P24468 whole entry): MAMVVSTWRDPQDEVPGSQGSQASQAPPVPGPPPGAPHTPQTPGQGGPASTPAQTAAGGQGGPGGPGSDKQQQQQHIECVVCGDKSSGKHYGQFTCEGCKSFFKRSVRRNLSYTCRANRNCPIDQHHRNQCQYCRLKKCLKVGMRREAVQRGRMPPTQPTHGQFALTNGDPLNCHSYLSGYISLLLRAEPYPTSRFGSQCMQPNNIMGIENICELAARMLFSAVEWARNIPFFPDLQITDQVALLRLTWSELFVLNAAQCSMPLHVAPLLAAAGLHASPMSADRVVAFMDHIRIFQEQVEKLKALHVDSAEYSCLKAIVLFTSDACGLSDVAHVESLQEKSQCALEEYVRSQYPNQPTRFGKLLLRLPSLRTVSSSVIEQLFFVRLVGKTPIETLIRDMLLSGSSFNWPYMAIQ

SMILES: CC(C)CC#Cc1ccc2c(c1)O[C@H](CN(C)C(=O)C1CCC1)[C@@H](C)CN([C@@H](C)CO)S2(=O)=O
- AC50 [1]: 15.8 µM (active)
- AC50 (HeLa): > 52 µM (inactive)
- AC50 (HEK293): 15.8 µM (active)

SMILES: Cc1noc(C)c1-c1ccc(C(=O)NCCc2ccccc2)c2occc12
- AC50 (cells [2]): > 52 µM (inactive)

SMILES: O=S(=O)(c1ccccc1F)N1CC[C@@H]2[C@@H](CO)Nc3ccc(-c4cccc(F)c4)cc3[C@@H]21
- AC50 [3]: 32.6 µM (active)
- AC50 [4]: > 52 µM (inactive)
- AC50 [5]: 39.9 µM (active)

SMILES: CN(C)C(=O)c1cccc(-c2ccc([C@H]3[C@@H](CO)N4CCCCN(C(=O)C5CCC5)C[C@@H]34)cc2)c1
- AC50 [6]: 1.06 µM (active)

SMILES: O=C(CCNC(=O)c1ccc(Cl)c(Cl)c1)N[C@@H]1CCCc2ccccc21
- AC50 [7]: 3.34 µM (active)
- AC50 [8]: 26 µM (active)

- IC50 [9]: 3.62 µM (active)
- IC50 [10]: 0.03 µM (active)
SMILES: COc1ccccc1C(=O)Nc1cccc(NC(=O)c2ccccc2OC)c1

SMILES: C(=Cc1c[nH]c2ccccc12)c1ccc2ccccc2n1
- IC50 (cells [11]): > 67.5 µM (inactive)
- IC50 [12]: > 67.5 µM (inactive)
- IC50 [13]: 10.3 µM (inactive)

- AC50 [14]: 0.0686 µM (active)
- AC50 [15]: 0.0616 µM (active)
SMILES: C[C@@H]1CN([C@H](C)CO)C(=O)c2cc(NC(=O)C3CCCCC3)ccc2O[C@H]1CN(C)S(=O)(=O)c1ccc(Cl)cc1

SMILES: O=C(CSc1nnc(-c2cccnc2)s1)Nc1ccnc2ccccc12
- AC50 [16]: 1.19 µM (active)
- AC50 [17]: 2.34 µM (active)
- AC50 [18]: 39.3 µM (active)
- EC50 (cells [19]): > 29.9 µM (inactive)
- IC50 (Galanin receptor type 3): 1.18 µM (active)
- AC50 [20]: 0.661 µM (active)
- IC50 [21]: 5.33 µM (active)

From ChEMBL document CHEMBL1201862, “PubChem BioAssay data set” (2004)
